Molecular target: human Cat S (Homo sapiens, UniProt P25774)
Test: Cathepsin enzyme inhibition assay (fluorogenic peptide substrate cleavage)
Assay type: biochemical
Conditions: human Cat S 1 nM; substrate Z-Val-Val-Arg-AMC 20 μM; pH 6.5; fluorescence over 20 minutes
In short: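 Fluorogenic cleavage of Z-Val-Val-Arg-AMC (20 μM) by 1 nM enzyme in 100 mM potassium phosphate pH 6.5, 5 mM EDTA, 5 mM DTT, 0.001% Triton X-100. Reaction started with substrate; fluorescence (ex 360/em 465 nm) followed over 20 minutes. IC50 by standard methods.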

Sequence of human Cat S (P25774 115-331): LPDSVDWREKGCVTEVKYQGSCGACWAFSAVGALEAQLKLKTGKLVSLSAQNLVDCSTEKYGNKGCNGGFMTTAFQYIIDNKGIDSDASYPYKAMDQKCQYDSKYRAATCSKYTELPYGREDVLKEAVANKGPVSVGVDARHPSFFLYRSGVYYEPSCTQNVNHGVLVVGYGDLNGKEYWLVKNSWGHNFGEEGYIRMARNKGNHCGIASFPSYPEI

| SMILES | IC50 [nM] |
| --- | --- |
| CNC(=O)Cn1cc(-c2ccc(S(=O)(=O)[C@H]3C[C@@H](OC)[C@H](C(=O)NC4(C#N)CC4)C3)c(C(F)(F)F)c2)cn1 (racemic) [Example 216, (1R,2R,4R) and (1S,2S,4S)-2-Methoxy-4-[4-(1-methylcarbamoylmethyl-1H-pyrazol-4-yl)-2-trifluoromethyl-benzenesulfonyl]-cyclopentanecarboxylic acid (1-cyano-cyclopropyl)-amide] | 1.6 |
| Cc1cc(Cl)ccc1S(=O)(=O)[C@@H]1C[C@@H](C(=O)NCC#N)[C@H](C(=O)N2CCOCC2)C1 [Example 8, (1R,2R,4R)-4-(4-Chloro-2-methyl-benzenesulfonyl)-2-(morpholine-4-carbonyl)-cyclopentanecarboxylic acid cyanomethyl-amide] | 0.4 |
| CO[C@@H]1C[C@H](S(=O)(=O)c2ccc(-c3ccc(F)c(F)c3)cc2C(F)(F)F)C[C@H]1C(=O)NC1(C#N)CC1 (racemic) [Example 74, (1R,2R,4R) and (1S,2S,4S)-4-(3′,4′-Difluoro-3-trifluoromethyl-biphenyl-4-sulfonyl)-2-methoxy-cyclopentanecarboxylic acid (1-cyano-cyclopropyl)-amide] | 0.7 |
| N#CC1(NC(=O)[C@@H]2C[C@@H](S(=O)(=O)c3ccc(-c4cncc(-c5cnc(Cl)cn5)n4)cc3C(F)(F)F)C[C@H]2C(=O)N2CC(F)(F)C2)CC1 [Example 126, (1R,2R,4R)-4-[4-(5′-Chloro-[2,2]bipyrazinyl-6-yl)-2-trifluoromethyl-benzenesulfonyl]-2-(3,3-difluoro-azetidine-1-carbonyl)-cyclopentanecarboxylic acid (1-cyano-cyclopropyl)-amide] | 0.6 |
| Cc1ccc(S(=O)(=O)[C@@H]2C[C@@H](C(=O)NC3(C#N)CC3)[C@H](C(=O)N3CCC(F)(F)C3)C2)c(Cl)c1 [Example 200, (1R,2R,4R)-4-(2-Chloro-4-methyl-benzenesulfonyl)-2-(3,3-difluoro-pyrrolidine-1-carbonyl)-cyclopentanecarboxylic acid (1-cyano-cyclopropyl)-amide] | 0.445 |
| COc1ccc(COC[C@@H]2C[C@H](S(=O)(=O)c3ccc(F)cc3Cl)C[C@H]2C(=O)NC2(C#N)CC2)cc1 [Example 153, (1R,2R,4S)-4-(2-Chloro-4-fluoro-benzenesulfonyl)-2-(4-methoxy-benzyloxymethyl)-cyclopentanecarboxylic acid (1-cyano-cyclopropyl)-amide] | 25.5 |
| CO[C@@H]1C[C@H](S(=O)(=O)c2ccc(-c3c(C)noc3C)cc2C(F)(F)F)C[C@H]1C(=O)NC1(C#N)CC1 (racemic) [Example 91, (1R,2R,4R) and (1S,2S,4S)-4-[4-(3,5-Dimethyl-isoxazol-4-yl)-2-trifluoromethyl-benzenesulfonyl]-2-methoxy-cyclopentanecarboxylic acid (1-cyano-cyclopropyl)-amide] | 0.5 |
| N#CC1(NC(=O)[C@@H]2C[C@@H](S(=O)(=O)c3ccccc3Cl)C[C@H]2O)CC1 (racemic) [Example 48, (1R,2R,4R) and (1S,2S,4S)-4-(2-Chloro-benzenesulfonyl)-2-hydroxy-cyclopentanecarboxylic acid (1-cyano-cyclopropyl)-amide] | 120 |
| N#CC1(NC(=O)[C@@H]2C[C@@H](S(=O)(=O)c3ccc(-c4cncc(Cl)n4)cc3C(F)(F)F)C[C@H]2C(=O)N2CC(F)(F)C2)CC1 [Example 123, (1R,2R,4R)-4-[4-(6-Chloro-pyrazin-2-yl)-2-trifluoromethyl-benzenesulfonyl]-2-(3,3-difluoro-azetidine-1-carbonyl)-cyclopentanecarboxylic acid (1-cyano-cyclopropyl)-amide] | 0.1 |
| N#CCNC(=O)[C@@H]1CC(S(=O)(=O)c2ccccc2Cl)C[C@H]1COc1ccc(O)nn1 (mixture of isomers) [Example 107, (1R,2R,4R)-4-(2-Chloro-benzenesulfonyl)-2-(6-hydroxy-pyridazin-3-yloxymethyl)-cyclopentanecarboxylic acid cyanomethylamide and (1R,2R,4S)-4-(2-Chloro-benzenesulfonyl)-2-(6-hydroxy-pyridazin-3-yloxymethyl)-cyclopentanecarboxylic acid cyanomethylamide] | 20.2 |
| N#CCNC(=O)[C@@H]1C[C@@H](S(=O)(=O)c2ccccc2Cl)C[C@H]1COc1ccc(Cl)cc1 (single isomer, unassigned) [Example 68] | 2.2 |
| Cn1cc(-c2ccc(S(=O)(=O)[C@H]3C[C@@H](OC4CCS(=O)(=O)CC4)[C@H](C(=O)NC4(C#N)CC4)C3)c(C(F)(F)F)c2)cn1 (racemic) [Example 184, (1R,2R,4R) and (1S,2S,4S)-2-[(tetrahydro-1,1-dioxo-2H-thiopyran-4-yl)oxy]-4-[4-(1-methyl-1H-pyrazol-4-yl)-2-trifluoromethyl-benzenesulfonyl]-cyclopentanecarboxylic acid (1-cyano-cyclopropyl)-amide] | 0.16 |
| CCCO[C@@H]1C[C@H](S(=O)(=O)c2ccccc2C(F)(F)F)C[C@H]1C(=O)NC1(C#N)CC1 (racemic) [Example 54, (1R,2R,4R) and (1S,2S,4S)-2-Propoxy-4-(2-trifluoromethyl-benzenesulfonyl)-cyclopentanecarboxylic acid (1-cyano-cyclopropyl)-amide] | 2.1 |
| Cn1cc(-c2cccc(S(=O)(=O)[C@@H]3C[C@@H](C(=O)NC4(C#N)CC4)[C@H](C(=O)N4CCC(F)(F)C4)C3)c2)cn1 [Example 202, (1R,2R,4R)-2-(3,3-Difluoro-pyrrolidine-1-carbonyl)-4-[3-(1-methyl-1H-pyrazol-4-yl)-benzenesulfonyl]-cyclopentanecarboxylic acid (1-cyano-cyclopropyl)-amide] | 0.38 |
| N#CC1(NC(=O)[C@@H]2C[C@@H](S(=O)(=O)c3ccc(F)cc3Cl)C[C@H]2C(=O)N2CCC(F)(F)C2)CC1 [Example 186, (1R,2R,4R)-4-(2-Chloro-4-fluoro-benzenesulfonyl)-2-(3,3-difluoro-pyrrolidine-1-carbonyl)-cyclopentanecarboxylic acid (1-cyano-cyclopropyl)-amide] | 2.15 |
| CCN1CCC(C#N)(NC(=O)[C@@H]2C[C@@H](S(=O)(=O)c3ccccc3C(F)(F)F)C[C@H]2OCc2ccc(Cl)cc2)CC1 (racemic) [Example 239, (1R,2R,4R) and (1S,2S,4S)-2-(4-Chloro-benzyloxy)-4-(2-trifluoromethyl-benzenesulfonyl)-cyclopentanecarboxylic acid (4-cyano-1-ethyl-piperidin-4-yl)-amide] | 6.25 |
| N#CC1(NC(=O)[C@@H]2C[C@@H](S(=O)(=O)c3ccc(Br)cc3C(F)(F)F)C[C@H]2OC2CCCC2)CC1 (racemic) [Example 195, (1R,2R,4R) and (1S,2S,4S)-4-(4-Bromo-2-trifluoromethyl-benzenesulfonyl)-2-cyclopentyloxy-cyclopentanecarboxylic acid (1-cyano-cyclopropyl)-amide] | 0.917 |
| CO[C@@H]1C[C@H](S(=O)(=O)c2ccc(-c3cc[nH]n3)cc2C(F)(F)F)C[C@H]1C(=O)NC1(C#N)CC1 (racemic) [Example 73, (1R,2R,4R) and (1S,2S,4S)-2-Methoxy-4-[4-(1H-pyrazol-3-yl)-2-trifluoromethyl-benzenesulfonyl]-cyclopentanecarboxylic acid (1-cyano-cyclopropyl)-amide] | 1 |
| COC(=O)Cn1cc(-c2ccc(S(=O)(=O)[C@H]3C[C@@H](OC)[C@H](C(=O)NC4(C#N)CC4)C3)c(C(F)(F)F)c2)cn1 (racemic) [Example 179, (4-{4-[(1R,3R,4R) and (1S,3S,4S)-3-(1-Cyano-cyclopropylcarbamoyl)-4-methoxy-cyclopentanesulfonyl]-3-trifluoromethyl-phenyl}-pyrazol-1-yl)-acetic acid methyl ester] | 0.3 |
| N#CC1(NC(=O)[C@H]2CC[C@H](S(=O)(=O)c3ccc(N4CCOCC4)cc3Cl)C2)CC1 (racemic) [Example 94, (1S,3S) and (1R,3R)-3-(2-Chloro-4-morpholin-4-yl-benzenesulfonyl)-cyclopentanecarboxylic acid (1-cyano-cyclopropyl)-amide] | 290 |
| N#CC1(NC(=O)[C@@H]2C[C@@H](S(=O)(=O)c3ccc(-n4cccn4)cc3Cl)C[C@H]2C(=O)N2CC(F)(F)C2)CC1 [Example 167, (1R,2R,4R)-4-(2-Chloro-4-pyrazol-1-yl-benzenesulfonyl)-2-(3,3-difluoro-azetidine-1-carbonyl)-cyclopentanecarboxylic acid (1-cyano-cyclopropyl)-amide] | 1.47 |
| N#CC1(NC(=O)[C@@H]2C[C@@H](S(=O)(=O)c3ccccc3)C[C@H]2C(=O)O)CC1 [Example 10, (1R,2R,4R)-4-Benzenesulfonyl-2-(1-cyano-cyclopropylcarbamoyl)-cyclopentanecarboxylic acid] | 425 |

Source: US20100317647A1 (priority 2009, published 2010)
